{
  "source": "patent US11752125B2",
  "about": "“Anti-neuroinflammatory and protective compounds in Achillea fragrantissima” (THE STATE OF ISRAEL MINISTRY OF AGRICULTURE & RURAL …, priority 2013, dated 2023)",
  "key": {"[1]": {"system": "astrocytes", "assay": "H2O2-induced intracellular ROS levels in astrocytes (DCF-DA)", "format": "cell-based, rat", "settings": "for ability to reduce H2O2-induced ROS compared among TTF, quercetin and memantine: concentrations higher than 16 μM, ROS after 1 h, p>0.05", "protocol": "Intracellular ROS levels were detected using the non-fluorescent cell permeating compound, 2′7′-dichlorofluorescein diacetate (DCF-DA). DCF-DA is hydrolyzed by intracellular esterases and then oxidized by ROS to a fluorescent compound 2′-7′-DCF. Astrocytes were plated onto 24 wells plates (300,000 cells/well) and treated with DCF-DA (20 μM) for 30 min at 37° C. Following incubation with DCF-DA, cultures were rinsed twice with PBS and then re-suspended in DMEM containing 10% FBS, 8.4 mM HEPES, 2 mM glutamine, 100 U/ml penicillin, and 100 μg/mL streptomycin. ROS levels (fluorescence) at time zero were measured in a plate reader with excitation at 485 nm and emission at 520 nm. Astrocytes were then treated with TTF for 2 h before the addition of H2O2 and ROS levels (fluorescence) were measured in a plate reader with excitation at 485 nm and emission at 520 nm every hour for 4 h.\n1. Produce a primary culture of rat brain glial cells according to the method described in “Protective effects of the essential oil of salvia fruticosa and its constituents on astrocytic susceptibility to hydrogen peroxide-induced cell death”. 2009. A. Elmann, S. Mordechay, M. Rindner, O. Larkov, M. Elkabetz, U. Ravid. Journal of agricultural and food chemistry. 57(15):6636-41; 2. Separate astrocytes from other cell types in the culture according to the method described in “Protective effects of the essential oil of salvia fruticosa and its constituents on astrocytic susceptibility to hydrogen peroxide-induced cell death”. 2009. A. Elmann, S. Mordechay, M. Rindner, O. Larkov, M. Elkabetz, U. Ravid. Journal of agricultural and food chemistry. 57(15):6636-41; 3. Plate astrocytes (300,000 cells/0.5 ml/well of 24 wells plate) and incubate (37° C., 5% CO2) for 24 hr as described in: Elmann, A., et al., (2011). Extract of Achillea fragrantissima downregulates ROS production and protects astrocytes from oxidative-stress-induced cell death. In: “Neurodegenerative Diseases—Processes, Prevention, Protection and Monitoring”, ISBN 978-953-307-485-6, (Raymond Chuen-Chung Chang, ed). […] Read fluorescence of “time 0” at 485 nm (Extinction) and 528 nm (Emmision). […] Read fluorescence at 1, 2, 3, 4 hr after the addition of H2O2 (Ex: 485 nm and Em: 528 nm). […]\nAstrocytes were pre-loaded with DCF-DA for 30 min and washed. […] ROS levels in astrocytes were measured 1 h and 4 h after the application of H2O2. […] H2O2 was added to the culture and the fluorescence intensity representing ROS levels was measured after 1 h. […]\nPreloaded astrocytes were then preincubated for 2 h with various concentrations of achillolide A or memantine. H2O2(175 μM) was added and the fluorescence intensity was measured […]. […]"}, "[2]": {"assay": "DPPH free radical scavenging assay", "settings": "cell free; 8 min", "protocol": "Antioxidant activity was measured using the 2,2-diphenyl-1-pieryhydrazyl (DPPH) radical scavenging assay. Different dilutions of TTF (or control drugs) were added to 1 mL of DPPH (3.9 mg/100 mL methanol) in test tubes wrapped in aluminum foil. Absorbance (A) was measured at 517 nm after 8 min incubation in the dark. The scavenging ability (%) of the samples was calculated as (Acontrol−Asample)/Acontrol×100).\nAntioxidant activity was measured using the 2,2-diphenyl-1-pieryhydrazyl (DPPH) radical scavenging assay. Different dilutions of achillolide A or quercetin were added to 1 mL of DPPH (3.9 mg/100 mL methanol) in test tubes wrapped in aluminum foil. Absorbance (A) was measured at 517 nm after 8 min incubation in the dark. The scavenging ability (%) of the samples was calculated as (Acontrol−Asample)/Acontrol×100).\nThe DPPH scavenging ability of TTF, memantine and quercetin were compared for eight minutes. Results are shown in FIG. 7 and are the mean±SEM of two experiments performed in duplicates (n=4).\nThe DPPH scavenging ability of achillolide A and quercetin were tested for eight minutes. Values represent the mean±SEM (n=4 for each concentration). **p<0.01; ***p<0.001, compared to a mixture without achillolide A or quercetin."}},
  "data": [
    {"smiles": "COc1cc(-c2oc3cc(OC)c(OC)c(O)c3c(=O)c2O)ccc1O", "note": "[TTF, 3,5,4′-trihydroxy-6,7,3′-trimethoxyflavone]", "values": [
      {"measurement": "effect on H2O2-induced intracellular ROS levels", "setting": "[1]; 8 μM, H2O2 175 μM, ROS measured 1 h and 4 h after H2O2", "result": "inhibited the H2O2-induced elevation of intracellular ROS"},
      {"measurement": "IC50", "setting": "[2]", "result": 45, "unit": "µM"},
      {"measurement": "inhibition of DPPH absorbance at 517 nm (maximal scavenging ability)", "setting": "[2]", "result": 60, "unit": "%"}
    ]},
    {"smiles": "C=C1CCC2=C(CO)C(=O)O[C@H]2/C=C(\\C)[C@H](OC(C)=O)CC1=O", "note": "[achillolide A]", "values": [
      {"measurement": "effect on H2O2-induced ROS production", "setting": "[1]; 2 h preincubation, H2O2 175 μM, fluorescence 20 h later", "result": "attenuates"},
      {"measurement": "IC50", "setting": "[2]", "result": 45, "unit": "µM"},
      {"measurement": "inhibition of DPPH absorbance at 517 nm (maximal scavenging ability)", "setting": "[2]", "result": 60, "unit": "%"}
    ]},
    {"smiles": "CC12CC3CC(C)(C1)CC(N)(C3)C2", "note": "[memantine, reference compound]", "values": [
      {"measurement": "ability to reduce H2O2-induced ROS compared among TTF, quercetin and memantine", "setting": "[1]; 2 h preincubation", "result": "no significant difference"},
      {"measurement": "inhibition of DPPH absorbance at 517 nm (maximal scavenging ability)", "setting": "[2]", "result": 7, "unit": "%"}
    ]},
    {"smiles": "O=c1c(O)c(-c2ccc(O)c(O)c2)oc2cc(O)cc(O)c12", "note": "[quercetin, 3,3′,4′,5,7-Pentahydroxyflavone, reference compound]", "values": [
      {"measurement": "ability to reduce H2O2-induced ROS compared among TTF, quercetin and memantine", "setting": "[1]; 2 h preincubation", "result": "no significant difference"},
      {"measurement": "inhibition of DPPH absorbance at 517 nm (maximal scavenging ability)", "setting": "[2]", "result": 90, "unit": "%"}
    ]}
  ]
}
